{"source": "paper PMC11238352", "about": "“Combination of dual JAK/HDAC inhibitor with regorafenib synergistically reduces tumor growth, metastasis, and regorafenib-induced toxicity in colorectal cancer” (Journal of Experimental & Clinical Cancer Research : CR, 2024)", "test_in_all_cases": "PamStation PTK kinomic profiling", "assay_type_in_all_cases": "cell-based", "key": {"FAK1": {"molecular_target": "T1, FAK1 (Homo sapiens, UniProt Q05397)", "T1 construct": "cell lysates were prepared; endogenous in cells; host or cells: SW480 and RKO", "settings": "SW480, 45 min, change from DMSO control", "procedure": "(§1) SW480 and RKO cells were treated with vehicle (DMSO), JAK/HDACi, regorafenib, and their combination for 45 min, and cell lysates were prepared. Tyrosine kinase (PTK) activity (kinomic) profiling was performed using the PamStation®12 platform (PamGene, BV, The Netherlands). As per standard kinomic protocol as described previously. Whole-chip comparative analysis (BioNavigator Upkin PTK v8.0) was performed between groups generating Mean Kinase Statistics (direction of change)."}, "Fgr": {"molecular_target": "T2, Fgr (Homo sapiens, UniProt P09769)", "T2 construct": "we conducted kinome analysis on lysates of SW480 and RKO cells; endogenous in cells; host or cells: SW480 and RKO cells", "T2 sequence (P09769 whole entry)": "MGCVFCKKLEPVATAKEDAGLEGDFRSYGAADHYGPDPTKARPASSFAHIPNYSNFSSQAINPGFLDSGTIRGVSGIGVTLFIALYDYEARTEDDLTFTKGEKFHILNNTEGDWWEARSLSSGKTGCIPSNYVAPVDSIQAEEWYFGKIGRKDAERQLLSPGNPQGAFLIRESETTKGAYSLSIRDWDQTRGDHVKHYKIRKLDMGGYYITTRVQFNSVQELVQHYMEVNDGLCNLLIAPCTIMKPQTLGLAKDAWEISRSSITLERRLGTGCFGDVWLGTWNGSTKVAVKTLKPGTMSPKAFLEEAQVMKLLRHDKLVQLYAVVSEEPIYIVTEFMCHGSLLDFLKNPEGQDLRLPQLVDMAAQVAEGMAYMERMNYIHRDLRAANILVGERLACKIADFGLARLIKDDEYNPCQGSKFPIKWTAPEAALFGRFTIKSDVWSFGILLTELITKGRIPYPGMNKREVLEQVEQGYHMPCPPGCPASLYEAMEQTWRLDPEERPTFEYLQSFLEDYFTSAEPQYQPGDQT", "settings": "change from DMSO control", "procedure": "as §1"}, "FGFR1": {"tested_on": "FGFR1", "settings": "change from DMSO control", "procedure": "as §1"}, "EphA3": {"molecular_target": "T3, EphA3 (Homo sapiens, UniProt P29320)", "T3 construct": "cell lysates were prepared; endogenous in cells; host or cells: SW480 and RKO", "settings": "change from DMSO control", "procedure": "as §1"}, "Axl": {"molecular_target": "T4, Axl (Homo sapiens, UniProt P30530)", "T4 construct": "cell lysates were prepared; endogenous in cells; host or cells: SW480 and RKO", "settings": "change from DMSO control", "procedure": "as §1"}, "EphA1": {"molecular_target": "T5, EphA1 (Homo sapiens, UniProt P21709)", "T5 construct": "cell lysates were prepared; endogenous in cells; host or cells: SW480 and RKO", "T5 sequence (P21709 26-976)": "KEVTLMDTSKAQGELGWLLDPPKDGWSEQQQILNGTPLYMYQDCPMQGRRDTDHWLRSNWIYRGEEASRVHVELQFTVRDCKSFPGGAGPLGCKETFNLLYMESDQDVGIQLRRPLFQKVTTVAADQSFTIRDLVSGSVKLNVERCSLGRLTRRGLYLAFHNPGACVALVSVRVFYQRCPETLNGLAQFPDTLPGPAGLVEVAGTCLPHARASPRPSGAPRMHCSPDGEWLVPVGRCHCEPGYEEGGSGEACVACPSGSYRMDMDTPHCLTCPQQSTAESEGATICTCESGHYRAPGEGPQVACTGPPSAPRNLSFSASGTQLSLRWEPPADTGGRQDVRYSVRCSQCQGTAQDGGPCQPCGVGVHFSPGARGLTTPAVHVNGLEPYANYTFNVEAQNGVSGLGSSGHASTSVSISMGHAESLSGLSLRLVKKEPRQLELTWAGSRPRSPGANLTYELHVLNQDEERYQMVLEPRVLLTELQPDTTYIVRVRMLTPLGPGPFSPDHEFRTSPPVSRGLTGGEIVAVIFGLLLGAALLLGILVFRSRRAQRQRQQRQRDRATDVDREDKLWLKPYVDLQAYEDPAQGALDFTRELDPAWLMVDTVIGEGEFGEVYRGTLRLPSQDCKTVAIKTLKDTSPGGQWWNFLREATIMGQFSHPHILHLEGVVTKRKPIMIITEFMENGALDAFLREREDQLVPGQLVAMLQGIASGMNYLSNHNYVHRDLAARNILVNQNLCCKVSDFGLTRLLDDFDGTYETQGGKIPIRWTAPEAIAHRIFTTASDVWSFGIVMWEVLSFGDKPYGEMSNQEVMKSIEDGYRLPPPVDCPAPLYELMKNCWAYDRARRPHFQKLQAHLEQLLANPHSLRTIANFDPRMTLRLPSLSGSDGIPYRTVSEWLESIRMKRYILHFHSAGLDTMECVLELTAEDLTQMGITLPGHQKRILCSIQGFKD", "settings": "change from DMSO control", "procedure": "as §1"}, "FLT4": {"molecular_target": "T6, FLT4 (Homo sapiens, UniProt P35916)", "T6 construct": "cell lysates were prepared; endogenous in cells; host or cells: SW480 and RKO", "settings": "change from DMSO control", "procedure": "as §1"}, "FLT3": {"molecular_target": "T7, FLT3 (Homo sapiens, UniProt P36888)", "T7 construct": "we conducted kinome analysis on lysates of SW480 and RKO cells; endogenous in cells; host or cells: SW480 and RKO cells", "settings": "change from DMSO control", "procedure": "as §1"}, "JAK2": {"molecular_target": "T8, JAK2 (Homo sapiens, UniProt O60674)", "T8 construct": "cell lysates were prepared; endogenous in cells; host or cells: SW480 and RKO", "T8 sequence (O60674 whole entry)": "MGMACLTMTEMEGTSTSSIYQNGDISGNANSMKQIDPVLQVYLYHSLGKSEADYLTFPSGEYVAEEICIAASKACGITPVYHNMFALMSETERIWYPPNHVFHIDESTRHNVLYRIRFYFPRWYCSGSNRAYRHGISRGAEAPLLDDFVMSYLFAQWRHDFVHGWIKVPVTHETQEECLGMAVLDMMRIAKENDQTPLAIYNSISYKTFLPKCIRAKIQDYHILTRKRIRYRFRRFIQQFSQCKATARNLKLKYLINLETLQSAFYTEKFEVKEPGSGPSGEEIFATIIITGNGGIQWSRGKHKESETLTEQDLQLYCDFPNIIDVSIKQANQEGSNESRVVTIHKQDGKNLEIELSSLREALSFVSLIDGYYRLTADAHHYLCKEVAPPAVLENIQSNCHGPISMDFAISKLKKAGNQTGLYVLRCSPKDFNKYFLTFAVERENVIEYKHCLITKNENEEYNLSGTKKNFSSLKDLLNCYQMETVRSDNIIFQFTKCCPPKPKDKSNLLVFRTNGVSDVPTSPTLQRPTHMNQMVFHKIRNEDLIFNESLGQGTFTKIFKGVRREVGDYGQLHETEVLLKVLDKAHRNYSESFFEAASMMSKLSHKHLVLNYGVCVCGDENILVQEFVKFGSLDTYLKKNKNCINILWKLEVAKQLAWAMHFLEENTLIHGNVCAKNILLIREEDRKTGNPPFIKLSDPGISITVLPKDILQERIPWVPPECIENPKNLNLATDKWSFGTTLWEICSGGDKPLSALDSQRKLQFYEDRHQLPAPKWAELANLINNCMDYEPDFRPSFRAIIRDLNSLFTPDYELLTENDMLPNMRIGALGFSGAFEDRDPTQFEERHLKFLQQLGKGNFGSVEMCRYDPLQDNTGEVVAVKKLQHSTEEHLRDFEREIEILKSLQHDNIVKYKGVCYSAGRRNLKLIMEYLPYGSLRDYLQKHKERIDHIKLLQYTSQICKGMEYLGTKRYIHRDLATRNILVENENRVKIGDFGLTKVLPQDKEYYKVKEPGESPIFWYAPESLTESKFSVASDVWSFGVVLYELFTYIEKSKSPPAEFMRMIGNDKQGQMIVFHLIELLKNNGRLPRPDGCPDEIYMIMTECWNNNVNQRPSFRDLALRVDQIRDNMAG", "settings": "change from DMSO control", "procedure": "as §1"}, "FGFR3": {"molecular_target": "T9, FGFR3 (Homo sapiens, UniProt P22607)", "T9 construct": "cell lysates were prepared; endogenous in cells; host or cells: SW480 and RKO", "settings": "change from DMSO control", "procedure": "as §1"}, "Abl": {"molecular_target": "T10, Abl (Homo sapiens, UniProt P00519)", "T10 construct": "cell lysates were prepared; endogenous in cells; host or cells: SW480 and RKO", "T10 sequence (P00519 whole entry)": "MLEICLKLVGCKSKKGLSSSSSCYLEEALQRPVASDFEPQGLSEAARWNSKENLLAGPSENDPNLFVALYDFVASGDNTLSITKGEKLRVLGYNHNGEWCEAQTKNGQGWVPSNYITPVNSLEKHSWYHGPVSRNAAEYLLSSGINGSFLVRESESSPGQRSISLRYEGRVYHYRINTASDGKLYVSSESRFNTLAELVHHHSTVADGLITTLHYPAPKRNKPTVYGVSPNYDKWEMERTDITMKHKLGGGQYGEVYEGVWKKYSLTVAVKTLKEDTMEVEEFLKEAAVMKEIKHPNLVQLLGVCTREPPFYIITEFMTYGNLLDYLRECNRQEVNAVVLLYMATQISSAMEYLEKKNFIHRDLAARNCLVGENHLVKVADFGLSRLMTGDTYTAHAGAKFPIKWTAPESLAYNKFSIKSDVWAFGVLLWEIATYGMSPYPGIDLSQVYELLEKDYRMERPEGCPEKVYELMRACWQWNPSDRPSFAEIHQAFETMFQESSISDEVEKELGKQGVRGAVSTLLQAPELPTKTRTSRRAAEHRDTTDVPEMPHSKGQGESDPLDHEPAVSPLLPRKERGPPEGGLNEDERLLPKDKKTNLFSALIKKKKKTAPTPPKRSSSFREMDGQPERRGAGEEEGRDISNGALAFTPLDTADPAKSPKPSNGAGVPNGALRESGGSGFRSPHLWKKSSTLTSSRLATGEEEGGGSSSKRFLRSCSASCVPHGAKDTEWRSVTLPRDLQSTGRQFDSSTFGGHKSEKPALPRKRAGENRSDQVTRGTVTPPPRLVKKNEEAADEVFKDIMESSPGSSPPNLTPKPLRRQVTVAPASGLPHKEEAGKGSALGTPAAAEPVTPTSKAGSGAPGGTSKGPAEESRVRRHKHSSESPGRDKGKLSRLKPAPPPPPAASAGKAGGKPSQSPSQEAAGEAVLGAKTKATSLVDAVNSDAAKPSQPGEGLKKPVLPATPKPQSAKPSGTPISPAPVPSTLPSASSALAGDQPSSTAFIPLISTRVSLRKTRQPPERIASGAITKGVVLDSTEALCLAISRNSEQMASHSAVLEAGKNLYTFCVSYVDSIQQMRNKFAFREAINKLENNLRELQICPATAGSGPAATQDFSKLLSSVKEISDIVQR", "settings": "change from DMSO control", "procedure": "as §1"}, "JAK1~b": {"molecular_target": "T11, JAK1~b (Homo sapiens, UniProt P23458)", "T11 construct": "cell lysates were prepared; endogenous in cells; host or cells: SW480 and RKO", "settings": "change from DMSO control", "procedure": "as §1"}, "Src": {"molecular_target": "T12, Src (Homo sapiens, UniProt P12931)", "T12 construct": "cell lysates were prepared; endogenous in cells; host or cells: SW480 and RKO", "settings": "change from DMSO control", "procedure": "as §1"}, "IGF1R": {"molecular_target": "T13, IGF1R (Homo sapiens, UniProt P08069)", "T13 construct": "cell lysates were prepared; endogenous in cells; host or cells: SW480 and RKO", "settings": "change from DMSO control", "procedure": "as §1"}, "PDGFR[beta]": {"molecular_target": "T14, PDGFR[beta] (Homo sapiens, UniProt P09619)", "T14 construct": "cell lysates were prepared; endogenous in cells; host or cells: SW480 and RKO", "settings": "change from DMSO control", "procedure": "as §1"}, "EphA2": {"molecular_target": "T15, EphA2 (Homo sapiens, UniProt P29317)", "T15 construct": "cell lysates were prepared; endogenous in cells; host or cells: SW480 and RKO", "settings": "change from DMSO control", "procedure": "as §1"}, "FGFR4": {"molecular_target": "T16, FGFR4 (Homo sapiens, UniProt P22455)", "T16 construct": "cell lysates were prepared; endogenous in cells; host or cells: SW480 and RKO", "settings": "change from DMSO control", "procedure": "as §1"}, "HER3": {"molecular_target": "T17, HER3 (Homo sapiens, UniProt P21860)", "T17 construct": "cell lysates were prepared; endogenous in cells; host or cells: SW480 and RKO", "T17 sequence (P21860 20-1342)": "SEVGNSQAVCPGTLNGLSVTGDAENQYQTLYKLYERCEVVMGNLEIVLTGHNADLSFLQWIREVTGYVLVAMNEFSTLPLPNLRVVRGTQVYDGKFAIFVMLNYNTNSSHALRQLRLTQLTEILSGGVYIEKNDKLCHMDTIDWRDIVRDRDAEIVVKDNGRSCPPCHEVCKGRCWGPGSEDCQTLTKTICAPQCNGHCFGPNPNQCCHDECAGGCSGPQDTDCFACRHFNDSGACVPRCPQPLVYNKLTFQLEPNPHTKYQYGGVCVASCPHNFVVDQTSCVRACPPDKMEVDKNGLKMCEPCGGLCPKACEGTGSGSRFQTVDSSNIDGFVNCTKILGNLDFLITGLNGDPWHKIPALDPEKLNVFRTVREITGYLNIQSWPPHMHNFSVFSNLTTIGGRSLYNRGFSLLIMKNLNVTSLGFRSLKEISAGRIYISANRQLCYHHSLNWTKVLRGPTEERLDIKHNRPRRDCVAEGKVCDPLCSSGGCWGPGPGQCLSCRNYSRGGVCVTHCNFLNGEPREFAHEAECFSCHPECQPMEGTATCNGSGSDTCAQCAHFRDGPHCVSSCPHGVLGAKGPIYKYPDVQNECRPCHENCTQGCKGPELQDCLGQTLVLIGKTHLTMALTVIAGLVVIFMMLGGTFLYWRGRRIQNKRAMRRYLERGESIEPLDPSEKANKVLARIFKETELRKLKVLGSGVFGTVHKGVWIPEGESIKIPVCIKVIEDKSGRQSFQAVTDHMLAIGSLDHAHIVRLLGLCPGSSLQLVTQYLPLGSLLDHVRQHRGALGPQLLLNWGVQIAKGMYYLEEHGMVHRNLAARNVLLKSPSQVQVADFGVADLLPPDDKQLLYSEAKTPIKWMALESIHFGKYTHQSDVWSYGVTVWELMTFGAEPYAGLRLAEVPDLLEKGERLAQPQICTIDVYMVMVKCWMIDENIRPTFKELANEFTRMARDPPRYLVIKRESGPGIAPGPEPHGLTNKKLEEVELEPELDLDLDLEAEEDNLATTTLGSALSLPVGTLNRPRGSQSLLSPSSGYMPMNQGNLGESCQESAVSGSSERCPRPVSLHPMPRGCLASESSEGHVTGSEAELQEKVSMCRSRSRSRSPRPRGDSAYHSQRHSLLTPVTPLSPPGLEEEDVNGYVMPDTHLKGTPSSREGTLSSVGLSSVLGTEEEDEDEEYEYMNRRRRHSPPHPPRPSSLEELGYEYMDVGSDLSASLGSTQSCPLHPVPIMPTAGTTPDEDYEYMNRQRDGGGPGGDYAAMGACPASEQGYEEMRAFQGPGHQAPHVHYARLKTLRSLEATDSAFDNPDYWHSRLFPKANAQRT", "settings": "change from DMSO control", "procedure": "as §1"}}, "data": [{"smiles": "CNC(=O)c1cc(Oc2ccc(NC(=O)Nc3ccc(Cl)c(C(F)(F)F)c3)c(F)c2)ccn1", "note": "[regorafenib]", "values": [{"measurement": "Mean Kinase Statistic, FAK1", "setting": "FAK1", "value": -0.131}, {"measurement": "Mean Kinase Statistic, Fgr", "setting": "Fgr; RKO, 45 min", "value": -0.272}, {"measurement": "Mean Kinase Statistic, Fgr", "setting": "Fgr; SW480, 45 min", "value": -0.185}, {"measurement": "Mean Kinase Statistic, FGFR1", "setting": "FGFR1; RKO, 45 min", "value": 0.199}, {"measurement": "Mean Kinase Statistic, FGFR1", "setting": "FGFR1; SW480, 45 min", "value": -0.180}, {"measurement": "Mean Kinase Statistic, EphA3", "setting": "EphA3; RKO, 45 min", "value": 0.028}, {"measurement": "Mean Kinase Statistic, EphA3", "setting": "EphA3; SW480, 45 min", "value": -0.136}, {"measurement": "Mean Kinase Statistic, Axl", "setting": "Axl; RKO, 45 min", "value": -0.027}, {"measurement": "Mean Kinase Statistic, Axl", "setting": "Axl; SW480, 45 min", "value": -0.146}, {"measurement": "Mean Kinase Statistic, EphA1", "setting": "EphA1; RKO, 45 min", "value": 0.168}, {"measurement": "Mean Kinase Statistic, EphA1", "setting": "EphA1; SW480, 45 min", "value": -0.125}, {"measurement": "Mean Kinase Statistic, FLT4", "setting": "FLT4; RKO, 45 min", "value": 0.133}, {"measurement": "Mean Kinase Statistic, FLT4", "setting": "FLT4; SW480, 45 min", "value": -0.234}, {"measurement": "Mean Kinase Statistic, FLT3", "setting": "FLT3; RKO, 45 min", "value": 0.133}, {"measurement": "Mean Kinase Statistic, FLT3", "setting": "FLT3; SW480, 45 min", "value": -0.243}, {"measurement": "Mean Kinase Statistic, JAK2", "setting": "JAK2; RKO, 45 min", "value": 0.236}, {"measurement": "Mean Kinase Statistic, JAK2", "setting": "JAK2; SW480, 45 min", "value": -0.116}, {"measurement": "Mean Kinase Statistic, FGFR3", "setting": "FGFR3; RKO, 45 min", "value": 0.194}, {"measurement": "Mean Kinase Statistic, FGFR3", "setting": "FGFR3; SW480, 45 min", "value": -0.292}, {"measurement": "Mean Kinase Statistic, Abl", "setting": "Abl; RKO, 45 min", "value": -0.036}, {"measurement": "Mean Kinase Statistic, Abl", "setting": "Abl; SW480, 45 min", "value": -0.154}, {"measurement": "Mean Kinase Statistic, JAK1~b", "setting": "JAK1~b; RKO, 45 min", "value": 0.393}, {"measurement": "Mean Kinase Statistic, JAK1~b", "setting": "JAK1~b; SW480, 45 min", "value": -0.185}, {"measurement": "Mean Kinase Statistic, Src", "setting": "Src; RKO, 45 min", "value": -0.068}, {"measurement": "Mean Kinase Statistic, Src", "setting": "Src; SW480, 45 min", "value": -0.128}, {"measurement": "Mean Kinase Statistic, IGF1R", "setting": "IGF1R; RKO, 45 min", "value": -0.129}, {"measurement": "Mean Kinase Statistic, IGF1R", "setting": "IGF1R; SW480, 45 min", "value": -0.222}, {"measurement": "Mean Kinase Statistic, PDGFR[beta]", "setting": "PDGFR[beta]; RKO, 45 min", "value": 0.140}, {"measurement": "Mean Kinase Statistic, PDGFR[beta]", "setting": "PDGFR[beta]; SW480, 45 min", "value": -0.203}, {"measurement": "Mean Kinase Statistic, EphA2", "setting": "EphA2; RKO, 45 min", "value": 0.225}, {"measurement": "Mean Kinase Statistic, EphA2", "setting": "EphA2; SW480, 45 min", "value": -0.097}, {"measurement": "Mean Kinase Statistic, FGFR4", "setting": "FGFR4; RKO, 45 min", "value": 0.215}, {"measurement": "Mean Kinase Statistic, FGFR4", "setting": "FGFR4; SW480, 45 min", "value": -0.166}, {"measurement": "Mean Kinase Statistic, HER3", "setting": "HER3; RKO, 45 min", "value": 0.047}, {"measurement": "Mean Kinase Statistic, HER3", "setting": "HER3; SW480, 45 min", "value": -0.158}]}]}
